Assay results taken from patent US7807138B2, “Biomarkers of metabolic responses to hepatic drugs” (Metabolon, Inc., priority 2006, dated 2010).
Marks after values point to notes of the source that are not given here.

How the values were obtained:
[1] = tested on: rat liver; conditions: rats, cited from earlier work
[2] = tested on: rat liver; test: LC-MS metabolomics of liver from rats dosed with clofibrate; assay type: in vivo; conditions: LCMS
Procedure: In one embodiment, the hepatotoxicant is clofibrate. Clofibrate or vehicle is administered orally (0, 50, 250 mg/kg/d) to groups of 6 rats and serum and livers are collected 6 and 24 h after either a single or 14 daily doses. Global biochemical profiles are determined by LC-MS and GC-MS and components highly perturbed by clofibrate exposure are identified by the methods described above. […] Rats (6 per group) were dosed by gavage with vehicle, 50 or 250 mg/kg clofibrate per day for 1 (single dose) or 14 days (repeated dose). These groups are referred to as “day 1” and ‘day 14 (d 1 and d14).” Liver and serum were collected at 6 and 24 h post-dosing in the day 1 and day 14. In detail, a single dose of clofibrate or vehicle was administered by gavage (0, 50 and 250 mg/kg) to groups of 18 male Sprague Dawley rats at 11 wks age. Six rats per dose group were euthanized at 6 and 24 h post-dose. Serum (for metabolomics and alanine aminotransferase (ALT), and aspartate aminotransferase (AST)), liver lobes (for histology), and frozen liver and urine (for metabolomics) were collected. Six rats per dose group were placed in metabolism cages for urine collection at −24-0 h, 0-6 h, 6-24 h and 24-48 h. These rats were removed from metabolism cages at 48 h post-dose, for blood and liver collection. The detailed study design is set forth in Chart 1. Samples were extracted with 20% acetonitrile, then were evaporated and re-constituted in distilled water. For the liver, the left lobe was selected for metabolomic analysis. LC-MS was performed in positive and negative electrospray ionization modes on Bruker time of flight (TOF) instruments, using Icoria™ proprietary HPLC methods and picking and alignment programs. Samples were randomly placed in wells on 96-well plates, keeping d 1 and d 14 samples on separate plates. Between 54 and 72 samples plus quality control samples were run on each plate. Pre- and post-flight instrument checks were carried out. Thereafter, data integrity checks were performed to detect any errors related to our Laboratory Information Management System (LIMS) system, labeling of samples, and missing or extraneous information. […] Metabolites associated with LC-MS components were putatively identified using our proprietary database of mammalian metabolites as well as external sources of metabolic information.

[3] = tested on: rats; test: Liver enzymes ALT and AST in serum; assay type: in vivo, rat; conditions: 50 or 250 mg/kg, any groups
Procedure: (§1) In detail, a single dose of clofibrate or vehicle was administered by gavage (0, 50 and 250 mg/kg) to groups of 18 male Sprague Dawley rats at 11 wks age. Six rats per dose group were euthanized at 6 and 24 h post-dose. Serum (for metabolomics and alanine aminotransferase (ALT), and aspartate aminotransferase (AST)), liver lobes (for histology), and frozen liver and urine (for metabolomics) were collected. Six rats per dose group were placed in metabolism cages for urine collection at −24-0 h, 0-6 h, 6-24 h and 24-48 h. These rats were removed from metabolism cages at 48 h post-dose, for blood and liver collection. The detailed study design is set forth in Chart 1.

[4] = tested on: rat liver; test: GC-MS metabolomics of liver from rats dosed with clofibrate; assay type: in vivo; conditions: 250 mg/kg/d
Procedure: In one embodiment, the hepatotoxicant is clofibrate. Clofibrate or vehicle is administered orally (0, 50, 250 mg/kg/d) to groups of 6 rats and serum and livers are collected 6 and 24 h after either a single or 14 daily doses. Global biochemical profiles are determined by LC-MS and GC-MS and components highly perturbed by clofibrate exposure are identified by the methods described above. […] Rats (6 per group) were dosed by gavage with vehicle, 50 or 250 mg/kg clofibrate per day for 1 (single dose) or 14 days (repeated dose). These groups are referred to as “day 1” and ‘day 14 (d 1 and d14).” Liver and serum were collected at 6 and 24 h post-dosing in the day 1 and day 14. In detail, a single dose of clofibrate or vehicle was administered by gavage (0, 50 and 250 mg/kg) to groups of 18 male Sprague Dawley rats at 11 wks age. Six rats per dose group were euthanized at 6 and 24 h post-dose. Serum (for metabolomics and alanine aminotransferase (ALT), and aspartate aminotransferase (AST)), liver lobes (for histology), and frozen liver and urine (for metabolomics) were collected. Six rats per dose group were placed in metabolism cages for urine collection at −24-0 h, 0-6 h, 6-24 h and 24-48 h. These rats were removed from metabolism cages at 48 h post-dose, for blood and liver collection. The detailed study design is set forth in Chart 1. For GC-MS, liver was extracted with CHCl3:MeOH mixtures. Organic residue was derivitized with BSTFA and dried aqueous residues were derivitized with methoxyamine HCl/BSTFA. Samples were injected with 10:1 split into an Agilent 6890 gas chromatograph. A Leco Pegasus III TOFMS was used. Ions were generated at 70 eV with 3.2 mA ionization current; 25 spectra/s were recorded for 60-800 m/z. Acceleration voltage activated after 180 solvent delay. Detector voltage: 1750 V. Data were processed with Leco ChromaTOF software. Automatic peak detection and mass spectrum deconvolution were performed using 1.33 s peak width. Peaks with S/N less than 20 were rejected. Component identification was accomplished with the NIST 98' MS library and, in some cases, verified with standards. Components with similarity greater than 600 were used for analysis.

[5] = tested on: rat liver; test: Liver histology; assay type: in vivo
Procedure: as §1, with “In detail, a single dose of clofibrate or vehicle was administered by gavage (0, 50 and 250 mg/kg) to groups of 18 male Sprague Dawley rats at 11 wks age.” left out

[6] = 50 mg/kg/d for 14 days, 6 H after administration
[7] = 50 mg/kg/d for 14 days, 24 H after administration
[8] = 250 mg/kg/d for 14 days, 6 H after administration
[9] = 250 mg/kg/d for 14 days, 24 H after administration

Clofibrate metabolite Propanoic acid, 2-(4-chlorophenoxy)-2-methyl- in liver ([4]; cell spans the time columns): (not present in control)
SMILES: CCOC(=O)C(C)(C)Oc1ccc(Cl)cc1 [Clofibrate, ethyl-p-chloro-phenoxyisobutyrate]
Microscopic changes to liver ([1]; 24 h after a single exposure): no microscopic changes to liver
Liver histopathology ([1]; after 2 weeks): induced hypertrophy
D-Glycerate fold change relative to control [2, 6]: 1.3 fold change
Glycero-3-phosphoethanolamine fold change relative to control [2, 6]: −3.2 fold change
Threonate fold change relative to control [2, 6]: 1.3 fold change
Ornithine fold change relative to control [2, 7]: 1.84 fold change
Threonate fold change relative to control [2, 7]: −1.4 fold change
Various bile acids fold change relative to control [2, 7]: 1.3 fold change
Creatine fold change relative to control [2, 8]: 1.4 fold change
D-Glycerate fold change relative to control [2, 8]: 1.2 fold change
Glutathione fold change relative to control [2, 8]: −1.5 fold change
Glycero-3-phosphoethanolamine fold change relative to control [2, 8]: −7.7 fold change
Hypotaurine fold change relative to control [2, 8]: 1.3 fold change
Ornithine fold change relative to control [2, 8]: 2.3-5.4 fold change
Serine fold change relative to control [2, 8]: 1.3-1.7 fold change
Various bile acids fold change relative to control [2, 8]: 1.4 fold change
Creatine fold change relative to control [2, 9]: 2.1 fold change
Hypotaurine fold change relative to control [2, 9]: 1.3 fold change
Ornithine fold change relative to control [2, 9]: 2.8-10.6 fold change
Serine fold change relative to control [2, 9]: 1.7 fold change
ALT [3]: not elevated
AST [3]: not elevated
1-Mono linoleoylglycerol fold change ([4]; DAY 1, 6 H): 1.11*** fold change
1-Mono oleoylglycerol fold change ([4]; DAY 1, 6 H): 0.98* fold change
1-Mono palmitoylglycerol fold change ([4]; DAY 1, 6 H): 0.91** fold change
2-Mono oleoylglycerol fold change ([4]; DAY 1, 6 H): 1.12*** fold change
Cholesterol fold change ([4]; DAY 1, 6 H): 1.34*** fold change
Glucose (aq) fold change ([4]; DAY 1, 6 H): 0.29* fold change
Glycine fold change ([4]; DAY 1, 6 H): 2.69** fold change
Lactic acid fold change ([4]; DAY 1, 6 H): 1.56** fold change
Linoleic acid fold change ([4]; DAY 1, 6 H): 0.97* fold change
Palmitate fold change ([4]; DAY 1, 6 H): 0.95*** fold change
Stearate fold change ([4]; DAY 1, 6 H): 1.07* fold change
1-Mono stearoylglycerol fold change ([4]; DAY 1, 24 H): 17.14** fold change
Glycerol 1(3)-phosphate fold change ([4]; DAY 1, 24 H): 2.56* fold change
Glycine fold change ([4]; DAY 1, 24 H): 3.42* fold change
L-Aspartic acid fold change ([4]; DAY 1, 24 H): 27.88*** fold change
Lactic acid fold change ([4]; DAY 1, 24 H): 4.41* fold change
Succinic acid (Butanedioic acid) fold change ([4]; DAY 1, 24 H): 17.05** fold change
l-Alanine fold change ([4]; DAY 1, 24 H): 4.74* fold change
1-Mono palmitoylglycerol fold change ([4]; DAY 14, 6 H): 0.04** fold change
1-Mono stearoylglycerol fold change ([4]; DAY 14, 6 H): 0.22** fold change
2-Mono stearoylglycerol fold change ([4]; DAY 14, 6 H): 0.41* fold change
Arachidonic acid fold change ([4]; DAY 14, 6 H): 0.22*** fold change
Cholesterol fold change ([4]; DAY 14, 6 H): 1.87** fold change
Malate fold change ([4]; DAY 14, 6 H): 0.1** fold change
Palmitate fold change ([4]; DAY 14, 6 H): 0.72** fold change
β-Sitosterol fold change ([4]; DAY 14, 6 H): 0.37** fold change
Cholesterol fold change ([4]; DAY 14, 24 H): 0.69** fold change
Docosahexaenoic acid fold change ([4]; DAY 14, 24 H): 0.58* fold change
Glucose (aq) fold change ([4]; DAY 14, 24 H): 0.39** fold change
Malate fold change ([4]; DAY 14, 24 H): 0.33** fold change
β-Sitosterol fold change ([4]; DAY 14, 24 H): 0.46* fold change
Histology: hepatocellular cytologic alterations ([5]; after 14 doses at 250 mg/kg/day, all time points): hepatocellular cytologic alterations (indicating loss of glycogen and eosinophilic granular cytoplasm) were noted at all time points
Histology: hepatocellular mitotic figures ([5]; after a single dose, 50 to 250-mg/kg): dose related increase and severity of hepatocellular mitotic figures
